# Test results from US6653317B2, “Pyrimidine 3-oxide compounds for inducing/stimulating hair growth and/or retarding hair loss” (Societe l'Oreal S.A., priority 1998, dated 2003).
# Target: T1, prostaglandin endo-peroxidesynthase (PGHS-1) (Ovis aries, UniProt P05979)
# T1 construct: isolated from sheep seminal glands; purchased Cayman Chemical 60100; host or cells: sheep seminal glands (tissue-derived)
# T1 sequence (P05979 25-600): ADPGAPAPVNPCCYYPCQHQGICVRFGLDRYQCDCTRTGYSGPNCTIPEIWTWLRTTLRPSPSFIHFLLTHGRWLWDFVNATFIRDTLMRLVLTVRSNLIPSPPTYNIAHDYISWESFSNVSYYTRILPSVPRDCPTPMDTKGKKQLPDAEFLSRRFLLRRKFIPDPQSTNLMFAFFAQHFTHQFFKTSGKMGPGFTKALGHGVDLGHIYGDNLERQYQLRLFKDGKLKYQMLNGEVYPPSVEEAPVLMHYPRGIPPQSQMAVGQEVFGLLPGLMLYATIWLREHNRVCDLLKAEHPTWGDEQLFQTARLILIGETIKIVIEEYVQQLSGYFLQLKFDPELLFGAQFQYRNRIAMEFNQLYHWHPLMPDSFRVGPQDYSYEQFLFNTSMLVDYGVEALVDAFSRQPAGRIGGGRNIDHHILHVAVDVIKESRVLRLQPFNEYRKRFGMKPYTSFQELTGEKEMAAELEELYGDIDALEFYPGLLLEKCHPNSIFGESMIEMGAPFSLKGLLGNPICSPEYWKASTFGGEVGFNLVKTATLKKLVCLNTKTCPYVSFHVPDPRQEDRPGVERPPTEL
# Assay: Measurement of the prostaglandin-endoperoxide synthase (PGHS-1) activating power (oxygen consumption, Clark electrode)
# Assay type: biochemical, sheep
# Details: test compound 0.5 mM; oxidation of arachidonic acid, 37° C., pH 8.00; % relative to the values obtained with the control
# Method: The amount of oxygen required for the oxidation of arachidonic acid was measured by means of the cyclooxygenase activity of the prostaglandin-endo-peroxide synthase, in the presence or absence of the test compound.
# The oxygen consumption measurements were taken using a Clark electrode connected to a YSI 5300 oxymeter marketed by Yellow Spring Instruments.
# These measurements were taken in an open chamber with constant stirring at a temperature of 37° C.
# If a graph recorder was used, the oxygen consumption measurement is expressed in the form of a curve, the maximum slope of which makes it possible to determine the initial rate of the reaction, and from which it is possible to calculate the period for which the initial reaction rate is maintained.
# The curve thus obtained, in the absence of any substance other than the ingredients required for the enzymatic reaction, provides the basal activity of the enzyme. The initial rate and the period for which this rate is maintained can be determined under these conditions in a reaction comprising only the enzyme and its substrate.
# The activity of the test compounds was measured under the same conditions, by adding the test compound to the reaction medium. The activity of the test compound with respect to cyclooxygenase was evaluated by means of the variation of the slope and the variation of the period for which the maximum rate was maintained.
# A solution of 0.1 M Tris and 5 mM EDTA at pH=8.00 (TE solution) was prepared.
# The substrate was formulated in the form of a stock solution of potassium arachidonate according to the supplier's procedure (Interchim, France).
# The test compounds were prepared in the form of a stock solution with a titre of 5 mM, in a water/alcohol mixture (80/20) and were tested with the same batch of enzyme.
# At t=0, 380 μl of TEA buffer preheated to 37° C. were introduced into the measuring chamber and maintained to equilibrate for at least one minute.
# At t=1, 300 units of enzyme (PGHS) were introduced.
# Recording was initiated, and the mixture was again permitted to stabilize for one minute. The recording obtained provided the reaction baseline.
# After a further minute, 10 μl of substrate were introduced and the oxygen consumption was recorded for 2 to 3 minutes.
# The initial reaction rate and the period for which this rate was maintained were thus determined.
# The experimental conditions were identical to those above, except that the TEA buffer preheated to 37° C. was replaced by an identical buffer containing the test compound at a concentration of 0.5 mM.
# The following results are expressed as a % relative to the values obtained with the control.
row,Activation,Compound
1,+14%,"CCCCCCCCNc1ccnc(N)[n+]1[O-] [Example 3, 2-Amino-4-octylaminopyrimidine 3-Oxide]"
2,+11%,"CCCCCCCCCCCCNc1ccnc(N)[n+]1[O-] [Example 2, 2-Amino-4-dodecylaminopyrimidine 3-Oxide]"
3,+8%,"CCCCCCCCNc1cc(OCCCC)nc(N)[n+]1[O-] [Example 17, 2-Amino-4-octylamino-6-butyloxypyrimidine 3-Oxide]"
4,+37%,"CCCCCCNc1ccnc(N)[n+]1[O-] [Example 1, 2-Amino-4-hexylaminopyrimidine 3-Oxide]"
